This passage reports Ki results from patent US9434725B2, “5-azaindazole compounds and methods of use” (priority 2012, dated 2016).

What all share (type): biochemical
One assay has as its target PIM1 (Homo sapiens (Human), UniProt P11309). Briefly: biochemical. The settings on record: 10 μM ATP, 90 min, room temperature; read-out: PIM1 LC3K (KI). Here is the method: A fluorescent-labeled Pim-specific peptide substrate, was custom synthesized by American Peptide Company (Sunnyvale, Calif.). Reaction Buffer contained 10 mM HEPES, pH 7.2, 10 mM MgCl2, 0.01% Tween 20, 2 mM DTT. Termination Buffer contained 190 mM HEPES, pH 7.2, 0.015% Brij-35, 0.2% Coating Reagent 3 (Caliper Life Sciences, Hopkinton, Mass.), 20 mM EDTA. Separation Buffer contained 100 mM HEPES, pH 7.2, 0.015% Brij-35, 0.1% Coating Reagent 3, 1:200 Coating Reagent 8 (Caliper Life Sciences, Hopkinton, Mass.), 10 mM EDTA and 5% DMSO.
PIM reactions were carried out in a final volume of 10 μL per well in a 384-well plate. […] After 90 minutes of incubation at room temperature, the phosphorylation reaction was stopped by the addition of 10 μL Termination Buffer. The product and substrate in each independent reaction were separated on a 12-sipper microfluidic chip (Caliper Life Sciences, Hopkinton, Mass.) run on a Caliper LC3000® (Caliper Life Sciences, Hopkinton, Mass.). The separation of product and substrate was optimized by choosing voltages and pressure using Caliper's Optimizer software (Hopkinton, Mass.). […] Substrate conversion was calculated from the electropherogram using HTS Well Analyzer software (Caliper Life Sciences, Hopkinton, Mass.). Ki values for the test compound were calculated.

In a further assay the target is PIM2 (Homo sapiens (Human), UniProt Q9P1W9). Nature of the assay: Pim kinase binding activity, Caliper LC3000 microfluidic peptide phosphorylation assay, PIM2. The settings on record: 10 μM ATP, 90 min, room temperature; read-out: PIM2 LC3K (KI). The essentials:
(§1)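 Pim-specific fluorescent peptide phosphorylated in 10 mM HEPES pH 7.2, 10 mM MgCl2, 0.01% Tween 20, 2 mM DTT for 90 min at room temperature, then stopped with EDTA. Product and substrate separated by microfluidic mobility shift; Ki derived from substrate conversion.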

The target in the next assay is PIM3 (Homo sapiens (Human), UniProt Q86V86). Briefly: Pim kinase binding activity, Caliper LC3000 microfluidic peptide phosphorylation assay, PIM3. The settings on record: 10 μM ATP, 90 min, room temperature; read-out: PIM3 LC3K (KI). Put shortly:
as §1

Molecules are shown by their SMILES.

Sequence of PIM1 (P11309 whole entry): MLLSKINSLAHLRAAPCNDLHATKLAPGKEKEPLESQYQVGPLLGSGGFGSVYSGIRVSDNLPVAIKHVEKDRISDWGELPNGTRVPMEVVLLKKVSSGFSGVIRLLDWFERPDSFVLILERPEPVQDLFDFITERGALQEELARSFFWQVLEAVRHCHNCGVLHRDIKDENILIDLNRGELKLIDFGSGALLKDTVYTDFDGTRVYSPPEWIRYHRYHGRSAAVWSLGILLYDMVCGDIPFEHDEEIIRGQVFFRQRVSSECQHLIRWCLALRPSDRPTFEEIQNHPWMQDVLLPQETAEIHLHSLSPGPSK
Sequence of PIM2 (Q9P1W9 whole entry): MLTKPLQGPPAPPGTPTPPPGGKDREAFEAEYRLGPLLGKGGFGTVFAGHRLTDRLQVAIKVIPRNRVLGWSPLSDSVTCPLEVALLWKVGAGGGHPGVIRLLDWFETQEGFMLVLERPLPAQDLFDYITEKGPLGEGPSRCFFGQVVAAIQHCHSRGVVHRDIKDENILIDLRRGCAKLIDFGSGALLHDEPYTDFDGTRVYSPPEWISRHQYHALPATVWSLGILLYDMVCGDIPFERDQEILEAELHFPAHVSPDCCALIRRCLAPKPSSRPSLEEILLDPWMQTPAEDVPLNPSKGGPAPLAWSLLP

The Ki is a dissociation constant, usually derived from enzyme kinetics or from competition with a known ligand. Consider `COc1ncc(-n2ncc3cnc(-c4cncc(C)n4)cc32)nc1N1CCC[C@H](N)C1` [Compound 222, (3S)-1-[3-methoxy-6-[6-(6-methylpyrazin-2-yl)pyrazolo[4,3-c]pyridin-1-yl]pyrazin-2-yl]piperidin-3-amine], for which the Ki turned out to be 0.125 nM at PIM1, 0.979 nM at PIM2 and 0.073 nM on PIM3.

`Cc1cncc(-c2cc3c(cn2)cnn3-c2cnc(O)c(N3CCC[C@H](N)C3)n2)n1` [Compound 223, 3-[(3S)-3-amino-1-piperidyl]-5-[6-(6-methylpyrazin-2-yl)pyrazolo[4 3-c]pyridin-1-yl]pyrazin-2-ol]: the inhibition constant (Ki) at PIM1 is 2.37 nM; on PIM2, 7.11 nM; on PIM3, 1.84 nM.

In the case of `Cc1cncc(-c2cc3c(cn2)cnn3-c2cnc(Cl)c(N3CCC[C@H](N)C3)n2)n1` [Compound 226, (3S)-1-[3-chloro-6-[6-(6-methylpyrazin-2-yl)pyrazolo[4,3-c]pyridin-1-yl]pyrazin-2-yl]piperidin-3-amine], the inhibition constant Ki at PIM1 worked out at 1.65 nM; at PIM2 it was 10.4 nM; on PIM3, 0.89 nM.

On to `Cn1cc(-c2cc3c(cn2)cnn3-c2cccc(N3CCNC[C@@H](O)C3)n2)cn1` [Compound 229, (R)-1-(6-(6-(1-Methyl-1H-pyrazol-4-yl)-1H-pyrazolo[4,3-c]pyridin-1-yl)pyridin-2-yl)-1,4-diazepan-6-ol], for which the results for the Ki at PIM1, on PIM2 and on PIM3 were 0.316 nM, 9.39 nM and 0.131 nM, respectively.

Take `Cn1cc(-c2cc3c(cn2)cnn3-c2cccc(C3(O)CCCNCC3)n2)cn1` (stereo not drawn) [Compound 230, 4-(6-(6-(1-Methyl-1H-pyrazol-4-yl)-1H-pyrazolo[4,3-c]pyridin-1-yl)pyridin-2-yl)azepan-4-ol]: the values for the Ki on PIM1, at PIM2 and at PIM3 were 5.05 nM, 63.3 nM and 4.32 nM, respectively.

For `Cc1cncc(-c2cc3c(cn2)cnn3-c2cccc(N3CC(O)C(O)C3)n2)n1` (stereo not drawn) [Compound 232, 1-[6-[6-(6-methylpyrazin-2-yl)pyrazolo[4,3-c]pyridin-1-yl]-2-pyridyl]pyrrolidine-3 4-diol], the inhibitory constant (Ki) is 1.19 nM at PIM1, 21.1 nM on PIM2 and 0.83 nM at PIM3.

As for `Cc1cncc(-c2cc3c(cn2)cnn3-c2cc(N3CCC[C@H](N)C3)c(=O)n(C)c2)n1` [Compound 233, (S)-3-(3-aminopiperidin-1-yl)-1-methyl-5-(6-(6-methylpyrazin-2-yl)-1H-pyrazolo[4,3-c]pyridin-1-yl)pyridin-2(1H)-one], the inhibitory constant (Ki) at PIM1 was determined as 528 nM; at PIM2 it was 2300 nM; at PIM3 it was 903 nM.

Turning to `COc1ccc(-n2ncc3cnc(-c4cnn(CC(F)(F)F)c4)cc32)nc1N1CCNC[C@@H](O)C1` [Compound 234, (R)-1-(3-Methoxy-6-(6-(1-(2,2,2-trifluoroethyl)-1H-pyrazol-4-yl)-1H-pyrazolo-[4,3-c]pyridin-1-yl)pyridin-2-yl)-1,4-diazepan-6-ol], the inhibition constant (Ki) on PIM1 turned out to be 0.107 nM; at PIM2 it was 2.25 nM; at PIM3, 0.236 nM.

As to `Cn1cc(-c2cc3c(cn2)cnn3-c2cccc(C3CCCNCC3)n2)cn1` (stereo not drawn) [Compound 235, 1-(6-(azepan-4-yl)pyridin-2-yl)-6-(1-methyl-1H-pyrazol-4-yl)-1H-pyrazolo[4,3-c]pyridine], the Ki on PIM1 was found to be 1.55 nM; on PIM2, 16.5 nM; at PIM3, 0.806 nM.

For `Cn1cc(-c2cc3c(cn2)cnn3-c2cccc(C3(F)CCCNCC3)n2)cn1` (stereo not drawn) [Compound 236, 1-(6-(4-Fluoroazepan-4-yl)pyridin-2-yl)-6-(1-methyl-1H-pyrazol-4-yl)-1H-pyrazolo[4,3-c]pyridine], the Ki at PIM1 is 0.715 nM; on PIM2 it was 8.6 nM; at PIM3, 0.37 nM.

`COc1ccc(-n2ncc3cnc(-c4cnn(CC(F)(F)F)c4)cc32)nc1N1CCNC[C@H](O)C1` [Compound 237, (S)-1-(3-Methoxy-6-(6-(1-(2,2,2-trifluoroethyl)-1H-pyrazol-4-yl)-1H-pyrazolo-[4,3-c]pyridin-1-yl)pyridin-2-yl)-1,4-diazepan-6-ol]: the figures for the inhibitory constant (Ki) at PIM1, at PIM2 and on PIM3 were 0.31 nM, 10.1 nM and 0.587 nM, respectively.

For the molecule `Cc1cncc(-c2cc3c(cn2)cnn3-c2cnc(C3CC3)c(N3CCC[C@H](N)C3)n2)n1` [Compound 238, (3S)-1-[3-cyclopropyl-6-[6-(6-methylpyrazin-2-yl)pyrazolo[4,3-c]pyridin-1-yl]pyrazin-2-yl]piperidin-3-amine], the inhibitory constant (Ki) stood at 0.026 nM on PIM1, 0.257 nM on PIM2 and 0.032 nM at PIM3.

Turning to `Cc1cncc(-c2cc3c(cn2)cnn3-c2cccc(N3CCCN(C4COC4)CC3)n2)n1` [Compound 240, 6-(6-methylpyrazin-2-yl)-1-(6-(4-(oxetan-3-yl)-1,4-diazepan-1-yl)pyridin-2-yl)-1H-pyrazolo[4,3-c]pyridine], the Ki on PIM1 stood at 1.51 nM; on PIM2 it was 31.7 nM; on PIM3, 2.03 nM.

Regarding `Cc1cncc(-c2cc3c(cn2)cnn3-c2cn(C)c(=O)c(N3CCC[C@H](N)C3)n2)n1` [Compound 241, (S)-3-(3-aminopiperidin-1-yl)-1-methyl-5-(6-(6-methylpyrazin-2-yl)-1H-pyrazolo[4,3-c]pyridin-1-yl)pyrazin-2(1H)-one], the figures for the Ki at PIM1, on PIM2 and on PIM3 were 3.53 nM, 45.5 nM and 0.762 nM, respectively.

`Cn1cc(-c2cc3c(cn2)cnn3-c2cn(C)c(=O)c(N3CCC[C@H](N)C3)n2)cn1` [Compound 242, (S)-3-(3-Aminopiperidin-1-yl)-1-methyl-5-(6-(1-methyl-1H-pyrazol-4-yl)-1H-pyrazolo[4,3-c]pyridin-1-yl)pyrazin-2(1H)-one]: the Ki at PIM1 came out at 128 nM; on PIM2, 1600 nM; at PIM3 it was 42.2 nM.

For `Cn1cc(-c2cc3c(cn2)cnn3-c2cn(C)c(=O)c(N3CCC[C@@H](N)C3)n2)cn1` [Compound 243, (R)-3-(3-aminopiperidin-1-yl)-1-methyl-5-(6-(1-methyl-1H-pyrazol-4-yl)-1H-pyrazolo[4,3-c]pyridin-1-yl)pyrazin-2(1H)-one], the Ki on PIM1 amounted to 57.1 nM; at PIM2, 528 nM; at PIM3, 8.64 nM.

`Cc1cncc(-c2cc3c(cn2)cnn3-c2ccc(C)c(N3CCC[C@H](N)C3=O)n2)n1` [Compound 245, (3S)-3-amino-1-[3-methyl-6-[6-(6-methylpyrazin-2-yl)pyrazolo[4,3-c]pyridin-1-yl]-2-pyridyl]piperidin-2-one]: the Ki on PIM1 was found to be 5.61 nM; at PIM2, 52.5 nM; at PIM3, 2.13 nM.

Regarding `C[C@]1(O)CNCCN(c2cccc(-n3ncc4cnc(-c5cnn(CC(F)(F)F)c5)cc43)n2)C1` [Compound 248, (S)-6-Methyl-1-(6-(6-(1-(2,2,2-trifluoroethyl)-1H-pyrazol-4-yl)-1H-pyrazolo[4,3-c]-pyridin-1-yl)pyridin-2-yl)-1,4-diazepan-6-ol], the Ki amounted to 1.64 nM on PIM1, 22.1 nM on PIM2 and 3.36 nM on PIM3.

In the case of `C[C@@]1(O)CNCCN(c2cccc(-n3ncc4cnc(-c5cnn(CC(F)(F)F)c5)cc43)n2)C1` [Compound 249, (R)-6-Methyl-1-(6-(6-(1-(2,2,2-trifluoroethyl)-1H-pyrazol-4-yl)-1H-pyrazolo[4,3-c]-pyridin-1-yl)pyridin-2-yl)-1,4-diazepan-6-ol], the Ki at PIM1 is 2.16 nM; on PIM2, 16.8 nM; on PIM3, 3.09 nM.

Take `Cc1cncc(-c2cc3c(cn2)cnn3-c2cc(C3COC3)cc(N3CCC[C@H](N)C3)n2)n1` [Compound 250, (S)-1-(6-(6-(6-methylpyrazin-2-yl)-1H-pyrazolo[4,3-c]pyridin-1-yl)-4-(oxetan-3-yl)pyridin-2-yl)piperidin-3-amine]: the results for the inhibition constant Ki at PIM1, at PIM2 and at PIM3 were 3.89 nM, 24.8 nM and 0.743 nM, respectively.

Consider `COc1ccc(-n2ncc3cnc(-c4cncc(C)n4)cc32)nc1N1CCCNC1=O` [Compound 251, 1-[3-methoxy-6-[6-(6-methylpyrazin-2-yl)pyrazolo[4,3-c]pyridin-1-yl]-2-pyridyl]hexahydropyrimidin-2-one], for which the values for the inhibition constant (Ki) at PIM1, at PIM2 and on PIM3 were 48.8 nM, 181 nM and 31.6 nM, respectively.

On to `Cc1cncc(-c2cc3c(cn2)cnn3-c2cccc(N3CCCNC3=O)n2)n1` [Compound 252, 1-[6-[6-(6-methylpyrazin-2-yl)pyrazolo[4,3-c]pyridin-1-yl]-2-pyridyl]hexahydropyrimidin-2-one], for which the Ki is 5.67 nM on PIM1, 35 nM at PIM2 and 3.16 nM at PIM3.

Turning to `Cn1cc(-c2cc3c(cn2)cnn3-c2cccc(N3CC(O)C3)n2)cn1` [Compound 253, 1-(6-(6-(1-Methyl-1H-pyrazol-4-yl)-1H-pyrazolo[4,3-c]pyridin-1-yl)pyridin-2-yl)azetidin-3-ol], the inhibition constant (Ki) on PIM1 came to 2.52 nM; on PIM2, 45.1 nM; on PIM3, 1.78 nM.
